In article PMC10165932, “Tripeptides conjugated with thiosemicarbazones: new inhibitors of tyrosinase for cosmeceutical use” (Journal of Enzyme Inhibition and Medicinal Chemistry, 2023):
Where “and” joins values, the source holds several entries; their conditions need not be identical. Equal values may be shown once. Read-outs that look alike come from different tables or passages of the source. Where a SMILES comes first, the peptide text is derived from it.

Key:
[1] = system: B16F0 murine melanoma cell line; test: cells; type: cell-based; settings: 48 h
Experimental: B16F0 murine melanoma cell line was cultured in DMEM (Biowest, Nuaillé, France) medium supplemented with 100 U/ml streptomycin (Sigma-Aldrich, Taufkirchen, Germany), 100 U/ml penicillin (Sigma-Aldrich, Taufkirchen, Germany), and 10% foetal bovine serum (Sigma-Aldrich, Taufkirchen, Germany). Cells were maintained in 5% CO2 at 37 °C. Cells viability was estimated by MTT colorimetric assay as described by Bellei et al.[51] B16 cells were seeded into 96-well plate (4 × 10^3 cells/well) and incubated in the presence of the investigated compounds at various concentrations (1000, 400, 100, 40, 10, 1, 0.1 μM) for 48 h. Kojic acid and DMSO were used as controls. MTT was added into wells (0.625 mg/ml, Sigma-Aldrich, Taufkirchen, Germany) for the last 4 h. Then lysing buffer was added to dissolve insoluble formazan. The absorbance was measured (λ = 570 nm) using Thermo Lab Multiscan RC microplate reader.

mushroom tyrosinase [2] = target: T1, mushroom tyrosinase (Agaricus bisporus, UniProt C7FF04); test: Tyrosinase inhibition assay (diphenolase activity, L-DOPA substrate); type: biochemical; settings: for IC50 / tyrosinase inhibition (in words): diphenolase activity; for IC50: L-DOPA 5 mM; for tyrosinase inhibition (in words): tested range of concentrations
T1 sequence (C7FF04 1-392): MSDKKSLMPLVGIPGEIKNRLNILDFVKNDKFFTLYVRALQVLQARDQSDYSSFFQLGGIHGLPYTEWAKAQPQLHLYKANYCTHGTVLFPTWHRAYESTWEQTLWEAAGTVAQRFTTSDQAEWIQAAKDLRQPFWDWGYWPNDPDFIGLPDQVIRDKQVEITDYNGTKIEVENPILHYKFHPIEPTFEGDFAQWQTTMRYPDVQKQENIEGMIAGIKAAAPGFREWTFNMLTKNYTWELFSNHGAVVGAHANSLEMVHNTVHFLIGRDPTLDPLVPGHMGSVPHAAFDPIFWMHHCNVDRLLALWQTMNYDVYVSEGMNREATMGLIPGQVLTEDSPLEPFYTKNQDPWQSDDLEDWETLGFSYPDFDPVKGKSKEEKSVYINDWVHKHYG
Experimental: The tyrosinase enzymatic assay was performed according to the protocol described previously in our papers[46–48] using L-3,4-dihydroxyphenylalanine (L-DOPA) (Sigma-Aldrich, Germany) as a substrate. L-DOPA was dissolved in an aqueous 0.15 mM phosphoric(V) acid solution, preventing its oxidation. […] Tyrosinase powder (Sigma-Aldrich, Germany) was dissolved in the assay buffer to obtain a concentration of 50,000 units/mL. This stock solution was divided into 50 μL aliquots, each one containing 2500 units of tyrosinase, and stored at −80 °C. Shortly before the assay, one of the aliquots was reconstituted in the assay buffer up to 3000 μL. First, 10 μL of the diluted enzyme solution was preincubated with samples at various concentrations for 5 min at 25 °C. Afterwards, 20 μL of L-DOPA solution was added.
The screening of tyrosinase activity of the synthetic compounds was performed according to the procedure previously reported in our articles.[46–48] As reported in most of the research dealing with tyrosinase inhibition, we employed mushroom tyrosinase, due to the lack of information and the limited availability of human tyrosinase.[59]^,[60] All the compounds were evaluated at different concentrations after incubation with tyrosinase in solution for 5 min at room temperature. Afterwards, the substrate L-DOPA was added to start the enzymatic reaction. The absorbance provided by the colourful derivative, dopachrome, was measured every 5 s for 10 min in order to monitor the progress of the reaction over time. […] (1) % of ENZactivity=Sampleslope/ECslope×100

[3] = system: B16F0 murine melanoma cell line; test: cells; type: cell-based; settings: for % Of melanogenesis inhibition at a specific inhibitor concentration / inhibition at 10 µM / inhibition at 40 µM: B16F0, 48 h; for inhibition at 10 µM / inhibition at 40 µM: read-out: % Of melanogenesis inhibition at a specific inhibitor concentration
Experimental: The effect of the synthetic compounds on melanogenesis inhibition was performed in B16F0 murine melanoma cell line. The mouse model of human skin is often employed in skin biology and cancer research due to numerous similarities.[62] B16F0 murine melanoma cell line shares most of the melanogenesis with human melanocytes. Therefore, it is the proper model for screening the effect of potential inhibitors on melanogenesis.[63]

mushroom tyrosinase [4] = target: T1, mushroom tyrosinase; settings: cited from earlier work; for tyrosinase inhibition (in words): previous paper
[5] = system: B16F0 murine melanoma cell line; set-up: method as in PMID 30248509; settings: previous paper; read-out: IC50 value for melanogenesis; cited from earlier work
[6] = n = 3, read-out: The maximum percentage of inhibition reached for poor inhibitors
[7] = Mus musculus, B16F0, MTT, n = 3, read-out: IC50 of cell proliferation
[8] = Mus musculus, B16F0, n = 3, read-out: IC50 of melanin production

SMILES | IC50 [1] [µM] | IC50 (mushroom tyrosinase [2]; n = 3) | IC50 ([3]; 24 h) [µM] | inhibition at 250 µM (mushroom tyrosinase [2]; [6]) [%] | % Of melanogenesis inhibition at a specific inhibitor concentration ([3]; 10 µM) [%] | % Of melanogenesis inhibition at a specific inhibitor concentration ([3]; 40 µM) [%] | also measured
C/C(=N\NC(N)=S)c1ccc(C(=O)N[C@@H](Cc2ccccc2)C(=O)N[C@@H](Cc2c[nH]c3ccccc23)C(=O)N[C@@H](Cc2ccc(O)cc2)C(=O)O)cc1 [Compound 15, TSC3-FWY-OH] | 67.5 | 25.1 ± 2.5 µM | 67.1 | – | 5 | 20 | –
NC(=S)N/N=C/c1ccc(C(=O)N[C@@H](Cc2ccccc2)C(=O)N[C@@H](Cc2ccccc2)C(=O)N[C@@H](Cc2ccc(O)cc2)C(=O)O)cc1 [Compound 7, TSC1-FFY-OH] | 72.8 | > 150 µM | 138 | 77 | 1 | 10 | –
NC(=S)N/N=C(\Cc1ccccc1)c1ccccc1 [thiosemicarbazone of (E)-2-phenylacetophenone] | – | – | – | – | – | – | tyrosinase inhibition (in words) (mushroom tyrosinase [4]): did not inhibit tyrosinase at all; IC50 [5]: < 2 µM
NC(=S)NN=C(c1ccccc1)c1ccccc1 [thiosemicarbazone of benzophenone] | – | – | – | – | – | – | tyrosinase inhibition (in words) (mushroom tyrosinase [4]): efficient tyrosinase inhibitor; IC50 [5]: < 2 µM
CC(C(=O)N[C@@H](Cc1ccccc1)C(=O)N[C@@H](Cc1c[nH]c2ccccc12)C(=O)N[C@@H](Cc1ccc(O)cc1)C(=O)O)c1cccc(C(=NNC(N)=S)c2ccccc2)c1 (mixture of isomers) [Compound 12, TSC2-FWY-OH] | 63.2 | – | 89.9 | 50 | 0 | 3 | –
CC(=O)N[C@@H](Cc1ccccc1)C(=O)N[C@@H](Cc1ccccc1)C(=O)N[C@@H](Cc1ccc(O)cc1)C(=O)O [Compound 4, Ac-FFY-OH] (Ac-Phe-Phe-Tyr-OH) | 106 | – | 246 | – | 1 | 3 | IC50 (mushroom tyrosinase [4]; tyrosinase inhibition, read-out: IC50 found in the literature): 240 µM; tyrosinase inhibition (in words) (mushroom tyrosinase [2]): no significant inhibition was observed in the tested range of concentrations
O=c1cc(CO)occ1O [Kojic acid, reference compound] | – | – | – | – | – | – | IC50 [1, 7]: 162 µM; inhibition at 10 µM ([3]; Mus musculus, 10 µM): 1%; inhibition at 40 µM ([3]; Mus musculus, 40 µM): 12%; IC50 [3, 8]: 121 µM
CC(=O)N[C@@H](Cc1ccccc1)C(=O)N[C@@H](Cc1ccc(O)cc1)C(=O)N[C@@H](Cc1ccc(O)cc1)C(=O)O [Compound 5, Ac-FYY-OH] (Ac-Phe-Tyr-Tyr-OH) | 96.6 | – | 175 | – | 0 | 2 | tyrosinase inhibition (in words) (mushroom tyrosinase [2]): no significant inhibition was observed in the tested range of concentrations
C/C(=N\NC(N)=S)c1ccc(C(=O)N[C@@H](Cc2ccccc2)C(=O)N[C@@H](Cc2ccc(O)cc2)C(=O)N[C@@H](Cc2ccc(O)cc2)C(=O)O)cc1 [Compound 14, TSC3-FYY-OH] | 83.7 | 26.1 ± 9 µM | 145 | – | 0 | 4 | –

Further lines, with some results ahead:

IC50 [1] [µM] | IC50 (mushroom tyrosinase [2]; n = 3) | IC50 ([3]; 24 h) [µM] | inhibition at 250 µM (mushroom tyrosinase [2]; [6]) [%] | SMILES | % Of melanogenesis inhibition at a specific inhibitor concentration ([3]; 10 µM) [%] | % Of melanogenesis inhibition at a specific inhibitor concentration ([3]; 40 µM) [%] | also measured
77.1 | 6.5 µM and 6.66 µM | 151 | – | NC(=S)N/N=C/c1ccc(C(=O)N[C@@H](Cc2ccccc2)C(=O)N[C@@H](Cc2c[nH]c3ccccc23)C(=O)N[C@@H](Cc2ccc(O)cc2)C(=O)O)cc1 [Compound 9, TSC1-FWY-OH] | 0 | 11 | –
81 | – | 141 | – | CC(=O)N[C@@H](Cc1ccccc1)C(=O)N[C@@H](Cc1c[nH]c2ccccc12)C(=O)N[C@@H](Cc1ccc(O)cc1)C(=O)O [Compound 6, Ac-FWY-OH] (Ac-Phe-Trp-Tyr-OH) | 0 | 4 | tyrosinase inhibition (in words) (mushroom tyrosinase [2]): no significant inhibition was observed in the tested range of concentrations
77.2 | – | – | 36 | CC(C(=O)N[C@@H](Cc1ccccc1)C(=O)N[C@@H](Cc1ccc(O)cc1)C(=O)N[C@@H](Cc1ccc(O)cc1)C(=O)O)c1cccc(C(=NNC(N)=S)c2ccccc2)c1 (mixture of isomers) [Compound 11, TSC2-FYY-OH] | 0 | 0 | –
77.4 | – | 146 | 45 | CC(C(=O)N[C@@H](Cc1ccccc1)C(=O)N[C@@H](Cc1ccccc1)C(=O)N[C@@H](Cc1ccc(O)cc1)C(=O)O)c1cccc(C(=NNC(N)=S)c2ccccc2)c1 (mixture of isomers) [Compound 10, TSC2-FFY-OH] | 0 | 4 | –
– | > 150 µM | – | – | CC(C(=O)O)c1cccc(/C(=N\NC(N)=S)c2ccccc2)c1 (centres unmarked) [Compound 2, thiosemicarbazone of ketoprofen] | – | – | IC50 [1, 7]: 71.5 µM; inhibition at 150 µM (mushroom tyrosinase [2]; at 150 μM, n = 3, read-out: The maximum percentage of inhibition reached for poor inhibitors): 34%; tyrosinase inhibition (in words) (mushroom tyrosinase [2]): no significant inhibition towards tyrosinase; inhibition at 10 µM ([3]; Mus musculus, 10 µM): 28%; inhibition at 40 µM ([3]; Mus musculus, 40 µM): 77%; IC50 [3, 8]: 19.8 µM
49.8 | > 150 µM | 162 | 62 | C/C(=N\NC(N)=S)c1ccc(C(=O)N[C@@H](Cc2ccccc2)C(=O)N[C@@H](Cc2ccccc2)C(=O)N[C@@H](Cc2ccc(O)cc2)C(=O)O)cc1 [Compound 13, TSC3-FFY-OH] | 0 | 3 | –
99 | 6.5 µM and 6.57 µM | 158 | – | NC(=S)N/N=C/c1ccc(C(=O)N[C@@H](Cc2ccccc2)C(=O)N[C@@H](Cc2ccc(O)cc2)C(=O)N[C@@H](Cc2ccc(O)cc2)C(=O)O)cc1 [Compound 8, TSC1-FYY-OH] | 3 | 12 | –
